PubChem BioAssay (NCI)
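Protocol summary: plate cells (96-well), add compound at 5 concentrations, incubate 48 h, interpolate endpoints linearly. Definition used: TGI = concentration required for complete inhibition of growth.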

Columns and labels:
Assay in all cases: NCI anticancer screen, dose series, 48 h
[1] = system: 786-0 renal
[2] = system: A498 renal
[3] = system: A549 NSCLC
[4] = system: ACHN renal
[5] = system: CAKI-1 renal
[6] = system: CCRF-CEM leukemia
[7] = system: COLO 205 colon
[8] = system: DLD-1 colon
[9] = system: EKVX NSCLC
[10] = system: HCC-2998 colon
[11] = system: HCT-116 colon
[12] = system: HL-60(TB) leukemia
[13] = system: HOP-62 NSCLC
[14] = system: HOP-92 NSCLC
[15] = system: HT29 colon
[16] = system: K-562 leukemia
[17] = system: KM12 colon
[18] = system: KM20L2 colon
[19] = system: LXFL 529 NSCLC
[20] = system: M14 melanoma
[21] = system: M19-MEL melanoma
[22] = system: MALME-3M melanoma
[23] = system: MOLT-4 leukemia
[24] = system: NCI-H226 lung
[25] = system: NCI-H23 lung
[26] = system: NCI-H460 lung
[27] = system: NCI-H522 lung
[28] = system: OVCAR-3 ovarian
[29] = system: OVCAR-4 ovarian
[30] = system: OVCAR-5 ovarian
[31] = system: OVCAR-8 ovarian
[32] = system: RPMI-8226 leukemia
[33] = system: SF-268 CNS
[34] = system: SF-295 CNS
[35] = system: SK-MEL-2 melanoma
[36] = system: SK-MEL-28 melanoma
[37] = system: SK-OV-3 ovarian
[38] = system: SN12C renal
[39] = system: SNB-19 CNS
[40] = system: SNB-75 CNS
[41] = system: SNB-78 CNS
[42] = system: SR leukemia
[43] = system: SW-620 colon
[44] = system: TK-10 renal
[45] = system: U251 CNS
[46] = system: UACC-257 melanoma
[47] = system: UACC-62 melanoma
[48] = system: UO-31 renal
[49] = system: XF 498 CNS
[50] = system: DMS 273 small cell lung
[51] = system: HCT-15 colon
[52] = system: IGROV1 ovarian
[53] = system: LOX IMVI melanoma
[54] = system: SF-539 CNS
[55] = system: SK-MEL-5 melanoma
[56] = system: DMS 114 small cell lung
[57] = system: RXF 393 renal

Work on `COc1cc(Br)c(CC2NCCc3cc(OC)c(OC)cc32)cc1OC` (configuration not stated) yielded a TGI [1] greater than 100 µM, a TGI [2] greater than 100 µM and a TGI [3] greater than 100 µM. It also gave a TGI [4] greater than 100 µM, a TGI [5] greater than 100 µM and a TGI [6] greater than 100 µM. It also gave a TGI [7] greater than 100 µM, a TGI [8] greater than 100 µM and a TGI [9] greater than 100 µM. It also gave a TGI [10] greater than 100 µM, a TGI [11] greater than 100 µM and a TGI [12] greater than 100 µM. For the same compound, the TGI [13] was greater than 100 µM, the TGI [14] was greater than 100 µM and the TGI [15] was greater than 100 µM. For the same compound, the TGI [16] was greater than 100 µM, the TGI [17] was greater than 100 µM and the TGI [18] was greater than 100 µM. It also gave a TGI [19] greater than 100 µM, a TGI [20] greater than 100 µM and a TGI [21] greater than 100 µM. It also gave a TGI [22] greater than 100 µM, a TGI [23] greater than 100 µM and a TGI [24] greater than 100 µM. It also gave a TGI [25] greater than 100 µM, a TGI [26] greater than 100 µM and a TGI [27] greater than 100 µM. For the same compound, the TGI [28] was greater than 100 µM, the TGI [29] was greater than 100 µM and the TGI [30] was greater than 100 µM. It also gave a TGI [31] greater than 100 µM, a TGI [32] greater than 100 µM and a TGI [33] greater than 100 µM. For the same compound, the TGI [34] was greater than 100 µM, the TGI [35] was greater than 100 µM and the TGI [36] was greater than 100 µM. It also gave a TGI [37] greater than 100 µM, a TGI [38] greater than 100 µM and a TGI [39] greater than 100 µM. For the same compound, the TGI [40] was greater than 100 µM, the TGI [41] was greater than 100 µM and the TGI [42] was greater than 100 µM. For the same compound, the TGI [43] was greater than 100 µM, the TGI [44] was greater than 100 µM and the TGI [45] was greater than 100 µM. It also gave a TGI [46] greater than 100 µM, a TGI [47] greater than 100 µM and a TGI [48] greater than 100 µM. The TGI [49] was greater than 100 µM.
For `CN=C(NC#N)N(Cc1ccccc1)Cc1ccccc1`, the TGI [1] was greater than 100 µM, the TGI [2] was greater than 100 µM and the TGI [3] was greater than 100 µM. The TGI [4] was greater than 100 µM, the TGI [5] was greater than 100 µM and the TGI [6] was greater than 100 µM. The TGI [7] was greater than 100 µM, the TGI [8] was greater than 100 µM and the TGI [50] was greater than 100 µM. For the same compound, the TGI [9] was greater than 100 µM, the TGI [10] was greater than 100 µM and the TGI [11] was greater than 100 µM. For the same compound, the TGI [51] was greater than 100 µM, the TGI [12] was greater than 100 µM and the TGI [13] was greater than 100 µM. For the same compound, the TGI [14] was greater than 100 µM, the TGI [15] was greater than 100 µM and the TGI [52] was greater than 100 µM. The TGI [17] was greater than 100 µM, the TGI [18] was greater than 100 µM and the TGI [53] was greater than 100 µM. For the same compound, the TGI [19] was greater than 100 µM, the TGI [20] was greater than 100 µM and the TGI [21] was greater than 100 µM. For the same compound, the TGI [22] was greater than 100 µM, the TGI [23] was greater than 100 µM and the TGI [24] was greater than 100 µM. For the same compound, the TGI [25] was greater than 100 µM, the TGI [26] was greater than 100 µM and the TGI [27] was greater than 100 µM. The TGI [28] was greater than 100 µM, the TGI [29] was greater than 100 µM and the TGI [30] was greater than 100 µM. It also gave a TGI [31] greater than 100 µM, a TGI [32] greater than 100 µM and a TGI [33] greater than 100 µM. For the same compound, the TGI [34] was greater than 100 µM, the TGI [54] was greater than 100 µM and the TGI [35] was greater than 100 µM. It also gave a TGI [36] greater than 100 µM, a TGI [55] greater than 100 µM and a TGI [37] greater than 100 µM. It also gave a TGI [38] greater than 100 µM, a TGI [39] greater than 100 µM and a TGI [40] greater than 100 µM. For the same compound, the TGI [41] was greater than 100 µM, the TGI [42] was greater than 100 µM and the TGI [43] was greater than 100 µM. It also gave a TGI [44] greater than 100 µM, a TGI [45] greater than 100 µM and a TGI [46] greater than 100 µM. The TGI [47] was greater than 100 µM, the TGI [48] was greater than 100 µM and the TGI [49] was greater than 100 µM.
Work on `COC(=O)c1nc(-c2ccc(Cl)c(Cl)c2)nc2ccc(Cl)cc12` yielded a TGI [1] of 73 µM, a TGI [2] greater than 100 µM and a TGI [3] greater than 100 µM. It also gave a TGI [4] greater than 100 µM, a TGI [7] greater than 100 µM and a TGI [8] greater than 100 µM. For the same compound, the TGI [56] was greater than 100 µM, the TGI [50] was greater than 100 µM and the TGI [9] was greater than 100 µM. For the same compound, the TGI [10] was greater than 100 µM, the TGI [11] was greater than 100 µM and the TGI [12] was greater than 100 µM. For the same compound, the TGI [14] was 37.7 µM, the TGI [15] was greater than 100 µM and the TGI [52] was greater than 100 µM. It also gave a TGI [17] greater than 100 µM, a TGI [18] greater than 100 µM and a TGI [19] greater than 100 µM. For the same compound, the TGI [21] was greater than 100 µM, the TGI [22] was greater than 100 µM and the TGI [25] was greater than 100 µM. The TGI [26] was greater than 100 µM, the TGI [30] was greater than 100 µM and the TGI [31] was greater than 100 µM. The TGI [32] was greater than 100 µM, the TGI [57] was 63.5 µM and the TGI [33] was greater than 100 µM. For the same compound, the TGI [34] was greater than 100 µM, the TGI [54] was 84.1 µM and the TGI [35] was greater than 100 µM. For the same compound, the TGI [36] was greater than 100 µM, the TGI [55] was greater than 100 µM and the TGI [37] was 43.1 µM. For the same compound, the TGI [38] was greater than 100 µM, the TGI [39] was greater than 100 µM and the TGI [40] was 51.3 µM. The TGI [41] was greater than 100 µM, the TGI [42] was greater than 100 µM and the TGI [43] was greater than 100 µM. The TGI [44] was greater than 100 µM, the TGI [45] was greater than 100 µM and the TGI [46] was greater than 100 µM. It also gave a TGI [47] greater than 100 µM and a TGI [48] greater than 100 µM.
